From PubChem BioAssay (NCI)
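Exposure lasted 48 hours, with cells grown in 96-well plates and compounds tested at five concentrations. TGI: total growth inhibition.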

How the values were obtained:
Assay in all cases: NCI anticancer screen, dose series, 48 h
[1] = system: A549 NSCLC
[2] = system: EKVX NSCLC
[3] = system: HL-60(TB) leukemia
[4] = system: HS 578T breast
[5] = system: IGROV1 ovarian
[6] = system: KM12 colon
[7] = system: MCF7 breast
[8] = system: OVCAR-3 ovarian
[9] = system: SN12C renal
[10] = system: TK-10 renal

| Compound | TGI [1] [µM] | TGI [2] [µM] | TGI [3] [µM] | TGI [4] [µM] | TGI [5] [µM] | TGI [6] [µM] | TGI [7] [µM] | TGI [8] [µM] | TGI [9] [µM] | TGI [10] [µM] |
| --- | --- | --- | --- | --- | --- | --- | --- | --- | --- | --- |
| COc1cc2[nH]c(=O)[nH]c2c2c(C)c[nH]c12 | > 100 | > 100 | > 100 | > 100 | > 100 | > 100 | > 100 | > 100 | > 100 | > 100 |
| Cc1cc([C@H](C#N)c2nc3ccccc3s2)nc(Cl)n1 | > 100 | 59.4 | > 100 | 33.3 | 23.3 | 9.08 | > 100 | > 100 | > 100 | 44.1 |
| Nc1nc(-c2ccccc2)cc(-c2ccc(F)cc2)c1-c1ccc(Cl)cc1 | > 100 | > 100 | > 100 | > 100 | > 100 | > 100 | > 100 | > 100 | > 100 | > 100 |
| O=C(OCc1ccccc1[N+](=O)[O-])N1c2ccccc2[C@@]23O[C@]24CCC[C@H]3C#C/C=C\C#C[C@H]14 | > 100 | > 100 | 25.9 | > 100 | > 100 | > 100 | > 100 | > 100 | 68.2 | > 100 |
| O=C1NC(N2CCOCC2)=N/C1=C\c1ccccc1 | > 100 | > 100 | > 100 | > 100 | > 100 | > 100 | > 100 | > 100 | > 100 | > 100 |
| Nc1c(Cl)ncnc1NCC1(CO)CCC1 | > 100 | > 100 | > 100 | > 100 | > 100 | > 100 | > 100 | > 100 | > 100 | > 100 |
| c1ccc2c3c(c(N4CCNCC4)nc2c1)CCCC3 | 30.8 | 21.1 | 24.3 | > 100 | 25 | 33.7 | 27.6 | 40.1 | 31.1 | 26.6 |
| COC(=O)/C=C1\C(=O)N(C(C)=O)c2ccccc21 | > 57.6 | 31 | 5.61 | 25.8 | 22.4 | 29.2 | 28.2 | 23 | 24.3 | 21.7 |
| COC(=O)c1ccc2c(c1)CC1(C2)Cc2ccc3c(c2C1)CCC3 (stereo not given) | > 100 | > 100 | 39.7 | > 100 | > 100 | 40.9 | 81.5 | > 100 | > 100 | > 100 |
| Cc1cc(C)c2c(=O)n(CC(O)CN3CCN(c4ncccn4)CC3)sc2n1 (stereo not given) | 31.2 | 29.5 | 38.9 | 42.8 | > 100 | 44.6 | 31.8 | 34.5 | 31.6 | 32.1 |
| COc1cc(/C=C/C(=O)OC[C@]23O[C@H]2[C@@H](OC2OC(C)C(O)C(O)C2O)C2C=CO[C@@H](OC4OC(CO)C(O)C(O)C4O)C23)ccc1O (stereo not given in full) | > 100 | > 100 | > 100 | > 100 | > 100 | > 100 | > 100 | > 100 | > 100 | > 100 |
| CC(C)=CCC[C@@H](C)c1c(O)c(O)c(C)c2nc3ccccc3nc12 | 9.15 | 14.8 | 2.98 | 8.37 | 10.7 | 13.2 | 13.4 | 3.28 | 6.38 | 17 |
| C/C(=N\NC(=S)N/N=C(\C)c1ccccn1)c1ccccn1 | > 100 | 84.3 | > 100 | > 100 | > 100 | > 100 | > 100 | > 100 | > 100 | > 100 |
| NCCCCN(CCCN)C(=O)OCc1ccccc1 | > 100 | > 100 | > 100 | > 100 | > 100 | > 100 | > 100 | > 100 | > 100 | > 100 |
| CC(CCC(=O)O)(c1cc(Br)c(O)c(Br)c1)c1cc(Br)c(O)c(Br)c1 | > 100 | > 100 | > 100 | > 100 | > 100 | > 100 | > 100 | > 100 | > 100 | > 100 |
| O=C1CCCc2ccc3c(c21)CC1(Cc2cc4c(cc2C1)CCCC4)C3 | > 100 | 81.9 | 26.3 | 81.4 | 54.6 | 66.3 | 56.7 | 40.3 | 54.2 | 46.2 |
| Clc1ccc2nc3c(c(-c4ccccc4)nn3-c3ccccc3)c(-c3ccccc3)c2c1 | > 100 | > 100 | > 100 | > 100 | > 100 | > 100 | > 100 | > 100 | > 100 | > 100 |
| CS(=O)(=O)c1ccc(C2=C(c3ccccc3)C(=O)OC2)cc1 | > 100 | > 100 | > 100 | > 100 | > 100 | > 100 | > 100 | > 100 | > 100 | > 100 |
| CCNc1nc2ccccc2nc1NCC | > 100 | > 100 | > 100 | > 100 | > 100 | > 100 | > 100 | > 100 | > 100 | > 100 |
| CCOC(=O)C(NC(=O)Nc1ccccc1)(Nc1cccc(Cl)c1)C(F)(F)F (stereo not given) | > 100 | > 100 | > 100 | > 78.4 | > 100 | > 100 | > 100 | > 100 | > 100 | > 100 |
| CO/C=C(/C(=O)OC)c1ccccc1[C@H]1C[C@@H]1c1ccc(OC)cc1 | 65.6 | 50.2 | 62.4 | 84.5 | 45.5 | 68.8 | > 100 | 49 | > 100 | > 100 |
| C=C1CN(C(=O)c2cc3cc(OC)c(OC)c(OC)c3[nH]2)c2cc([N+](=O)[O-])ccc21 | > 100 | > 100 | > 100 | 41.9 | > 100 | > 100 | > 100 | > 100 | > 100 | > 100 |
| Nc1c2c(nc3ccccc13)-c1ccccc1CCC2 | 29.9 | 44.8 | 26.4 | 43.2 | 37.7 | 33.4 | 28.6 | 29.8 | 36.5 | 25.2 |
